Results: patent US10955415B2, “CD247 as a biomarker for assessing the effect of chemotherapeutic and biological drugs” (YISSUM RESEARCH DEVELOPMENT COMPANY OF THE HEBREW …, priority 2011, dated 2021)
Entries after “also recorded” stand apart in the source; their conditions may differ.

What was measured:
[1] = test system: CD247; assay: Adoptive transfer of CFSE-labeled normal splenocytes, CD247 in host and donor cells; type: in vivo, mice; settings: BCG-inflamed hosts, 24 h after transfer, spleen
Protocol: CFSE-labeled splenocytes from normal mice (donor cells) were adoptively transferred into mice untreated, inflamed, and inflamed treated i.p. with irinotecan (hosts). After 24 h, splenocytes from each group were harvested and stained for CD247 expression (MFI) in CD3+ T cells within the CFSE+ (donor-cell) or CFSE− (host-cell) population. Data from three independent experiments (n=4) is presented. Statistical analyses using t test indicated significant differences at 95% Cl. Means and SEM are shown. * P<0.05. Abbreviations: Ho. (host), Do. (donor), cont. (control).
CFSE-labeled splenocytes from normal mice (donor cells) were adoptively transferred into non-inflamed, inflamed, and inflamed mice treated i.p. with 5-FU (hosts). After 24 h, splenocytes from each group were harvested and stained for CD247 expression (MFI) in CD3+ T cells within the CFSE+ (donor-cell) or CFSE− (host-cell) population. Data from three independent experiments (n=4) is presented. Statistical analyses using t test indicated significant differences at 95% Cl. Means and SEM are shown. *, P<0.05. Abbreviations: Ho. (host), Do. (donor), cont. (control).
Next, the effect of etanercept treatment on the host's immune status as well as on adoptively transferred T- and NK-cells was examined. It should be noted that adoptively transferred T- and NK-cells being a treatment that is frequently used today in different immunotherapeutic regiments for various pathologies. To this end, CFSE-labeled normal splenocytes were administered, i.v., 1 day before cell harvest, at the peak of the inflammatory response (mimicking cell mediated therapies).

[2] = test system: CD11b+CD11c+ and CD11b+F4/80+ cells; assay: Myeloid differentiation state in spleen (DCs, macrophages, APC maturation); type: in vivo; settings: BCG-inflamed mice
Source text: FIG. 18A-18E. Splenocytes and PBLs from mice untreated (naïve), inflamed, or inflamed and treated with 5-FU or CPT-11 were fixed, permeabilized, and double stained for the expression of CD247 (ζ-chain) (FIGS. 18A, 18B) and CD3ε-chain (FIGS. 18D, 18E), as shown by mean fluorescence intensity (MFI), measured in gated CD3^+ cells. FIG. 18C: Splenocytes from mice, naïve, inflamed and inflamed treated with 5-FU or CPT-11, were labeled with CFSE and activated with anti-CD3 and anti-CD28 antibodies or left non-activated. The proliferative response was assessed by monitoring cell divisions of gated CFSE-labeled Thy1.2+ (CD90+) T-cells. The percent of proliferating cells was calculated and compared to steady state levels of non-activated cells per each group. Data from three independent experiments is presented (n=3). Statistical analyses using t test indicated significant differences at 95%. Means and SEM are shown. *, P<0.05; **, P<0.01. FIG. 18F-18I. For the detection of myeloid differentiation state, splenocytes from each group were stained for (18F) DC11b^+CD11c^+ cells (representing DCs), (18G) DC11b^+F4/80^+ cells (representing monocytes), (18H) CD11c^+MHCII^+CD80^+ cells (representing fully differentiated […] as antigen presenting cells) and (18I) F4/80^+MHCII^+CD80^+ cells (representing fully differentiated […] as antigen presenting cells). Data from three independent experiments (n=4) is presented. Statistical analyses using t test indicated significant differences at 95%. Means and SEM are shown. *, P<0.05; **, P<0.01; ***, P<0.001. Abbreviations: Nor. (normal), Rel. (relative), Inf. (inflamed), ce. Pro. (cell proliferation)
Isolated splenocytes and peripheral blood leukocytes (PBLs) were treated with erythrocyte lysis buffer and washed in PBS. Cells were pre-coated with anti-CD16/CD32 (Biolegend) for FcR blockage. For surface staining, cells were incubated for 30 min at 4° C. with FITC-labeled anti-Gr1, anti-CD11c, and anti-CD4; PE-labeled anti F4/80, anti-CD3ε, anti-CD45R/B220, and anti-mNKp46; and biotinylated anti-CD11b and anti-CD8 that were detected with streptavidin-Cy5 (Biolegend and eBioscience). Intracellular staining of CD247 cells was performed by subjecting the cells to fixation with paraformaldehyde (1%) for 20 min at 4° C., followed by washing and permeabilization for 10 min with saponin detergent (0.1%) at room temperature (RT). Cells were then washed and incubated with FITC-labeled monoclonal anti-CD247 (H146) (Abcam), or biotinylated monoclonal anti-CD247 (H146), which were subsequently detected with streptavidin-Cy5. FoxP3 staining was performed according to the manufacturer's instructions. Samples were analyzed using FACSCalibur with Cell Quest software (BD).

[3] = test system: MDSCs (Gr1+CD11b+); parameters: species or system mice; settings: mouse, in vivo
[4] = test system: CD247; assay: CD247 expression in T cells infiltrating the colon, CRC mouse model; type: in vivo; settings: CRC-bearing mice
[5] = test system: CD3ε chain; parameters: species or system mice; settings: mouse, in vivo
[6] = test system: cleaved caspase-3; assay: Cleaved caspase-3 in splenic MDSCs (flow cytometry); type: in vivo; settings: BCG-inflamed mice
Source text: FIG. 17F. […] Means and SEM are shown. *, P<0.05; **, P<0.01. Abbreviations: Inf. (inflamed), Tot. sp. (total spleen), sp (spleen), g. (gated), Norm. (normal).

[7] = test system: MDSCs; assay: NO and ROS production gated on MDSCs, CRC mouse model; type: in vivo; settings: CRC-bearing mice, splenocytes
Protocol: Splenocytes isolated from normal mice, CRC mice or CRC mice treated with 5-FU alone or in a combination with CPT11 (n=5) were analyzed for nitric oxide (NO, FIG. 23A) and reactive oxygen species (ROS, FIG. 23B) production, both by flow cytometry analysis gaiting on the MDSCs (Gr1+CD11b+) population. Histograms represent production levels, as shown by mean fluorescence intensity (MFI). Data from three independent experiments (n=3) are presented. Statistical analyses using t test indicate significant differences at 95%. Means and SEM are shown. *, P<0.05; **, P<0.01. Abbreviations: Norm. (normal), g. (gated).

[8] = test system: MDSCs; assay: NO production of MDSCs in colon epithel and lamina propria, CRC mouse model; type: in vivo; settings: CRC-bearing mice, gated on MDSCs

SMILES	CD247 expression in host and adoptively transferred donor T cells [1]	differentiated myeloid cells in spleen (CD11b+CD11c+ DCs, CD11b+F4/80+ macrophages) [2]	MDSC levels in peripheral blood (PBLs) [3]	MDSC levels in the spleen [3]	CD247 expression levels in T cells infiltrating the colon [4]	CD3ε expression levels [5]	maturation of antigen presenting cells (CD80 and MHCII expression) [2]	cleaved caspase-3 expression in spleen-derived MDSCs [6]	NO and ROS production (MDSC suppressive activity) [7]	NO production in epithel and lamina propria [8]
CCc1c2c(nc3ccc(OC(=O)N4CCC(N5CCCCC5)CC4)cc13)-c1cc3c(c(=O)n1C2)COC(=O)[C@]3(O)CC [Irinotecan]	significant further decrease	blockage of the myeloid cell differentiation and maturation	remained high; also recorded: no changes	significantly enhanced; also recorded: significantly increased	Reduced levels	remained unchanged; also recorded: not down regulated	–	–	–	–
O=c1[nH]cc(F)c(=O)[nH]1 [5-FU, 5-Fluorouracil]	clear significant increase	significant turning towards differentiated myeloid population	significant decline; also recorded: decrease; also recorded: reduced	significant decline; also recorded: decrease; also recorded: reduced	elevated	rather constant; also recorded: not down regulated	enhanced the maturation	significant increase	decreased the suppressive activity	reduced
